Legend:
Experiment in all cases: relative viability (nuclei count vs DMSO), 5 days (fraction); higher = more cells survive
Crenolanib + Crizotinib = compound: CC1(COc2ccc3c(c2)ncn3-c2ccc3cccc(N4CCC(N)CC4)c3n2)COC1 [Crenolanib] + C[C@@H](Oc1cc(-c2cnn(C3CCNCC3)c2)cnc1N)c1c(Cl)ccc(F)c1Cl [Crizotinib] (partner 1 µM)
In short: (§1)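 For relative viability, nuclei counts in treated wells were divided by those in vehicle wells. Lung cancer cell lines had been pin-tool dosed in 1536-well plates the day after seeding and cultured for 5 days, then fixed and stained in one step (final 0.05% Triton X-100, 1% formaldehyde, 1 ug/ml Hoechst) and imaged at 4×. Doses were one drug alone or a fixed anchor-drug dose plus five library-drug doses (not always all listed) in √10 steps, and values are duplicate-plate medians.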

Tivantinib + Dasatinib = compound: O=C1NC(=O)[C@@H](c2cn3c4c(cccc24)CCC3)[C@@H]1c1c[nH]c2ccccc12 [Tivantinib] + Cc1nc(Nc2ncc(C(=O)Nc3c(C)cccc3Cl)s2)cc(N2CCN(CCO)CC2)n1 [Dasatinib] (partner 0.075 µM)
In short: as §1

Tivantinib + Luminespib = compound: O=C1NC(=O)[C@@H](c2cn3c4c(cccc24)CCC3)[C@@H]1c1c[nH]c2ccccc12 [Tivantinib] + CCNC(=O)c1noc(-c2cc(C(C)C)c(O)cc2O)c1-c1ccc(CN2CCOCC2)cc1 [Luminespib] (partner 0.01 µM)
In short: as §1

Tivantinib + Navitoclax = compound: O=C1NC(=O)[C@@H](c2cn3c4c(cccc24)CCC3)[C@@H]1c1c[nH]c2ccccc12 [Tivantinib] + CC1(C)CCC(c2ccc(Cl)cc2)=C(CN2CCN(c3ccc(C(=O)NS(=O)(=O)c4ccc(N[C@H](CCN5CCOCC5)CSc5ccccc5)c(S(=O)(=O)C(F)(F)F)c4)cc3)CC2)C1 [Navitoclax] (partner 0.5 µM)
In short: as §1

Cell Line | relative viability (Crenolanib + Crizotinib; first compound 0.01 µM) | relative viability (Crenolanib + Crizotinib; first compound 0.03162 µM) | relative viability (Crenolanib + Crizotinib; first compound 0.1 µM) | relative viability (Crenolanib + Crizotinib; first compound 0.3162 µM) | relative viability (Crenolanib + Crizotinib; first compound 1 µM) | relative viability (Tivantinib + Dasatinib; first compound 0.01 µM) | relative viability (Tivantinib + Dasatinib; first compound 0.03162 µM) | relative viability (Tivantinib + Dasatinib; first compound 0.1 µM) | relative viability (Tivantinib + Dasatinib; first compound 0.3162 µM) | relative viability (Tivantinib + Luminespib; first compound 0.01 µM) | relative viability (Tivantinib + Luminespib; first compound 0.03162 µM) | relative viability (Tivantinib + Luminespib; first compound 0.1 µM) | relative viability (Tivantinib + Luminespib; first compound 0.3162 µM) | relative viability (Tivantinib + Navitoclax; first compound 0.01 µM) | relative viability (Tivantinib + Navitoclax; first compound 0.03162 µM) | relative viability (Tivantinib + Navitoclax; first compound 0.1 µM) | relative viability (Tivantinib + Navitoclax; first compound 0.3162 µM)
NCI-H1993 | 0.875 | 0.871 | 0.875 | 0.806 | 0.9 | 0.649 | 0.7 | 1.35 | 0.583 | 1 | 0.822 | 0.421 | 0.56 | 1.04 | 0.929 | 1.06 | 0.681
NCI-H2009 | 1.07 | 1.01 | 1.01 | 1.06 | 0.815 | 0.381 | 0.255 | 0.301 | 0.285 | 0.989 | 1.08 | 0.985 | 1.1 | 1.08 | 1.22 | 1.2 | 1.16
NCI-H2023 | 0.708 | 0.706 | 0.639 | 0.814 | 0.622 | 0.678 | 0.564 | 0.506 | 0.521 | 0.867 | 0.82 | 0.673 | 0.528 | 1.01 | 1 | 0.937 | 1
NCI-H2085 | 0.942 | 0.993 | 0.902 | 0.804 | 0.845 | 0.331 | 0.244 | 0.239 | 0.209 | 0.429 | 0.379 | 0.403 | 0.42 | 1.18 | 1.28 | 1.2 | 0.939
NCI-H2087 | 0.693 | 0.919 | 0.809 | 0.992 | 0.965 | 0.83 | 0.942 | 0.825 | 0.913 | 0.165 | 0.182 | 0.139 | 0.137 | 1.14 | 0.981 | 0.972 | 1.03
NCI-H2126 | 1.05 | 1.04 | 0.978 | 1.09 | 1.02 | 0.583 | 0.676 | 0.594 | 0.565 | 0.978 | 0.886 | 0.884 | 0.745 | 0.822 | 0.821 | 0.846 | 0.713
NCI-H2170 | 1.21 | 1.18 | 1.19 | 1.18 | 1.17 | 0.659 | 0.469 | 0.558 |  | 0.527 | 0.594 | 0.672 |  | 0.655 | 0.555 | 0.534 | 
NCI-H2228 | 0.483 | 0.38 | 0.407 | 0.577 | 0.516 |  | 0.484 | 0.539 | 0.352 |  | 0.152 | 0.168 | 0.125 | 1.15 | 0.71 | 0.837 | 1.01
NCI-H2347 | 0.934 | 0.624 | 0.506 | 0.59 | 0.72 | 0.345 | 0.267 | 0.283 | 0.306 | 0.726 | 0.35 | 0.285 | 0.316 | 0.868 | 0.718 | 0.678 | 0.755
NCI-H2405 | 0.899 | 0.94 | 0.623 | 0.809 | 0.837 | 0.213 | 0.213 | 0.218 | 0.169 | 0.77 | 0.908 | 0.651 | 0.586 | 1.17 | 0.766 | 0.973 | 0.305
NCI-H3122 | 0.27 | 0.288 | 0.298 | 0.267 | 0.321 | 0.808 | 0.808 | 0.788 | 0.686 | 0.0944 | 0.103 | 0.0763 | 0.0784 | 1.02 | 0.971 | 0.974 | 1.01
PC-3 [JPC-3] | 0.975 | 0.958 | 0.907 | 1.05 | 0.991 | 0.962 | 1.02 | 0.988 | 0.585 | 0.794 | 0.777 | 0.678 | 0.575 | 0.775 | 0.829 | 0.801 | 0.574
PC-14 | 0.902 | 0.93 | 0.825 | 0.966 | 1.03 | 0.29 | 0.27 | 0.234 | 0.0998 |  | 0.152 | 0.152 | 0.15 | 1.05 | 0.926 | 0.981 | 0.947
RERF-LC-KJ | 0.796 | 0.848 | 0.825 | 0.852 | 0.886 | 0.873 | 0.895 | 0.757 | 0.585 | 1.25 | 1.29 | 1.24 | 1.27 | 0.901 | 1.05 | 0.818 | 0.829
SK-LU-1 | 1 | 0.968 | 0.644 | 0.876 | 0.85 | 0.186 | 0.178 | 0.173 | 0.169 | 0.183 | 0.218 | 0.197 | 0.199 | 0.864 | 0.783 | 0.941 | 0.733
SK-MES-1 | 1 | 1 | 0.857 | 1.02 | 0.973 | 0.521 | 0.386 | 0.309 | 0.186 | 0.763 | 0.747 |  | 0.828 | 1.24 | 1.17 | 1.1 | 0.896
SW 1573 | 0.748 | 0.886 | 0.795 | 0.834 | 0.884 | 0.717 | 0.481 | 0.453 | 0.548 | 0.263 | 0.525 | 0.17 | 0.271 | 1.02 | 0.917 | 1.06 | 1.14
